{
  "source": "patent US20060252780A1",
  "about": "“Fused pyrimidine derivatives” (Kyowa Hakko Kogyo Co., Ltd., priority 2003, published 2006)",
  "note": "Structures can show the parent of a compound that is named as a salt.",
  "data": [
    {"test_system": "Pancreatic β cell line MIN6 cells", "experiment": "Insulin secretion stimulating activity in cultured β cells (MIN6), insulin in the supernatant by enzyme immunoassay or radioimmunoassay", "format": "cell-based", "conditions": "drug concentration 1.0 μmol/L, 14.5 mmol/L glucose, 45 min after stimulation, average of 3 to 4 tests, None (no drug) 148.4", "method": "Insulin Secretion Stimulating Activity in Cultured β Cells\nPancreatic β cell line MIN6 cells reported by Miyazaki, et al. [see Endocrinology, (1990) 127, p. […] 1139-1145]. In MIN6 cells, insulin secretion increase responding to a sulfonylurea agents, such as Glybenclamide, which are used as a therapeutic agent for diabetes (Cellular Signaling, (1993) 5, p. 777-786). Therefore, the above-mentioned culture of MIN6 cells and an insulin secretion test using the MIN6 cells were performed according to the method described in Diabetologia, (1993) 36, p. 1139-1145.\nThe effects of a compound on an insulin secretion activity under the presence of 14.5 mmol/L glucose was determined by measuring insulin amount in cell-culture supernatant collected as follows:\nMIN6 cells cultured in a 24-well plate were washed twice with 1 mL of buffer solution A (pH 7.3) containing 2 mmol/L glucose. Buffer solution A consists of 119 mmol/L sodium chloride, 4.74 mmol/L potassium chloride, 2.54 mmol/L calcium chloride, 1.19 mmol/L magnesium sulfate, 1.19 mmol/L potassium dihydrogen phosphate, 10 mmol/L 2-[4-(2-hyroxyethyl)-1-piperazinyl]ethane sulfonic acid and 0.1% bovine serum albumin. Then, the cells were incubated in 1 mL of buffer solution A containing 2 mmol/L glucose at 37° C. for 45 minutes. After the incubation, the culture supernatant was exchanged with 0.9 mL of buffer solution A containing each test compound at various concentrations and 2 mmol/L glucose. The cells were further incubated at 37° C. for 15 minutes. Then, the MIN6 cells were stimulated with glucose by adding 0.1 mL of buffer solution A containing 127 mmol/L glucose (a final glucose concentration: 14.5 mmol/L). After the stimulation, the cells were further incubated at 37° C. for 45 minutes, and the supernatant was collected.\nAntibody reactive insulin secreted in the culture supernatant was diluted with a phosphate buffer solution containing 1% bovine serum albumin, 0.1% Tween 20, 0.12% ethylenediaminetetraacetic acid (EDTA) disodium salt and 0.1% sodium azide, and then quantitatively measured by enzyme immunoassay or radioimmunoassay. The insulin levels were indicated as the amount of human insulin (ng/mLY. The results are indicated by averages (avg) and standard errors (se) of 3 to 4 tests.", "units": {"Insulin secretion content (ng/mL) ave": "ng/mL"}, "values": [
      {"molecule": "CCCN1C(=O)N2C[C@@H](Cc3ccccc3)N=C2c2cc(-c3ccccc3)[nH]c21", "note": "[Compound 1, (R)-2-Benzyl-2,3-dihydro-8-phenyl-6-propyl-7H-imidazo[1,2-c]pyrrolo[3,2-e]pyrimidin-5(6H)-one]", "Insulin secretion content (ng/mL) ave": 204.3},
      {"molecule": "CCCN1C(=O)N2C[C@@H](Cc3ccccc3)N=C2c2[nH]c(-c3ccccc3)cc21", "note": "[Compound 2, (R)-8-Benzyl-7,8-dihydro-2-phenyl-4-propyl-1H-imidazo[1,2-c]pyrrolo[2,3-e]pyrimidin-5(4H)-one]", "Insulin secretion content (ng/mL) ave": 187.1},
      {"molecule": "CCCN1C(=O)N2C[C@@H](Cc3ccccc3)N=C2c2cn(-c3ccccc3)nc21", "note": "[Compound 3, (R)-2-Benzyl-2,3-dihydro-8-phenyl-6-propyl-8H-imidazo[1,2-c]pyrazolo[4,3-e]pyrimidin-5(6H)-one]", "Insulin secretion content (ng/mL) ave": 213.2},
      {"molecule": "CCCN1C(=O)N2CC(Cc3ccc(F)cc3)N=C2c2cn(-c3ccccc3)nc21", "note": "(stereo not shown) [Compound 4, 2-(4-Fluorobenzyl)-2,3-dihydro-8-phenyl-6-propyl-8H-imidazo[1,2-c]pyrazolo[4,3-e]pyrimidin-5(6H)-one]", "Insulin secretion content (ng/mL) ave": 212.1},
      {"molecule": "CCCN1C(=O)N2CC(Cc3ccc(Cl)cc3)N=C2c2cn(-c3ccccc3)nc21", "note": "(stereo not shown) [Compound 5, 2-(4-Chlorobenzyl)-2,3-dihydro-8-phenyl-6-propyl-8H-imidazo[1,2-c]pyrazolo[4,3-e]pyrimidin-5(6H)-one]", "Insulin secretion content (ng/mL) ave": 190.9},
      {"molecule": "CCCN1C(=O)N2CC(Cc3ccncc3)N=C2c2cn(-c3ccccc3)nc21", "note": "(stereo not shown) [Compound 6, 2,3-Dihydro-8-phenyl-6-propyl-2-(4-picolyl)-8H-imidazo[1,2-c]pyrazolo[4,3-e]pyrimidin-5(6H)-one]", "Insulin secretion content (ng/mL) ave": 172.5},
      {"molecule": "CCCN1C(=O)N2C[C@@H](Cc3ccccc3)N=C2c2cn(C3CCCC3)nc21", "note": "[Compound 7, (R)-2-Benzyl-8-cyclopentyl-2,3-dihydro-6-propyl-8H-imidazo[1,2-c]pyrazolo[4,3-e]pyrimidin-5(6H)-one hydrochloride]", "Insulin secretion content (ng/mL) ave": 224.8},
      {"molecule": "CCCN1C(=O)N2C[C@@H](Cc3ccncc3)N=C2c2cn(C3CCCC3)nc21", "note": "[Compound 8, (R)-8-Cyclopentyl-2,3-dihydro-6-propyl-2-(4-picolyl)-8H-imidazo[1,2-c]pyrazolo[4,3-e]pyrimidin-5(6H)-one]", "Insulin secretion content (ng/mL) ave": 183.9},
      {"molecule": "CCCN1C(=O)N2C[C@@H](Cc3ccccc3)N=C2c2nn(-c3ccccc3)cc21", "note": "[Compound 9, (R)-8-Benzyl-7,8-dihydro-2-phenyl-4-propyl-2H-imidazo[1,2-c]pyrazolo[3,4-e]pyrimidin-5(4H)-one]", "Insulin secretion content (ng/mL) ave": 174.3},
      {"molecule": "CCCN1C(=O)N2C[C@@H](Cc3ccccc3)N=C2c2nn(C3CCCC3)cc21", "note": "[Compound 10, (R)-8-Benzyl-2-cyclopentyl-7,8-dihydro-4-propyl-2H-imidazo[1,2-c]pyrazolo[3,4-e]pyrimidin-5(4H)-one hydrochloride]", "Insulin secretion content (ng/mL) ave": 184.7}
    ]}
  ]
}
